According to the supplement of paper PMC11061612:

Tests used:
[1] = system: NCI-H1435 (Non-Small Cell Lung Carcinoma); test: Bliss excess, mean over the matrix (fraction); higher = more synergy
Summary of the method: (§1)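 After 24 hours at 37°C and 5% CO2 in 1536-well plates, cells in DMEM/F12 or RPMI plus 10% FBS received two-drug dose matrices for 72 hours. Viability came from CellTiter-Glo 2.0 luminescence and was scaled as inhibition, anchored at 0 by vehicle wells and at 1 by blank wells. Combination Emax is taken as the second-highest inhibition in the matrix, and Bliss excess as the observed combination effect less EA + EB − EA·EB, with EA and EB the single-agent effects.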

[2] = system: IGROV-1 (Ovarian Carcinoma); test: as above
Summary of the method: as §1

[3] = system: BC-1 (B-Cell Non-Hodgkin's Lymphoma); test: as above
Summary of the method: as §1

[4] = system: SBC-5 (Small Cell Lung Carcinoma); test: as above
Summary of the method: as §1

[5] = system: OCI-M1 (Acute Myeloid Leukemia); test: as above
Summary of the method: as §1

[6] = system: NCI-H2023 (Non-Small Cell Lung Carcinoma); test: as above
Summary of the method: as §1

SK-N-DZ (Neuroblastoma) = test: as above
Summary of the method: as §1

[7] = system: HT-3 (Cervical Carcinoma); test: as above
Summary of the method: as §1

[8] = system: KNS-62 (Squamous Cell Lung Carcinoma); test: as above
Summary of the method: as §1

A375 (Melanoma) [9] = test: as above
Summary of the method: as §1

C32 (Melanoma) [10] = test: as above
Summary of the method: as §1

[11] = system: ATN-1 (T-Lymphoblastic Leukemia); test: as above
Summary of the method: as §1

[12] = system: SUP-HD1 (Hodgkin's Lymphoma); test: combination Emax (second highest fraction inhibited in the dose matrix, 72 h); higher = more inhibition; extreme values may be limits of the assay
Summary of the method: as §1

[13] = system: NCI-H2009 (Lung Adenocarcinoma); test: as above
Summary of the method: as §1

A375 (Melanoma) [14] = test: as above
Summary of the method: as §1

MG-63 (Osteosarcoma) = test: as above
Summary of the method: as §1

C32 (Melanoma) [15] = test: as above
Summary of the method: as §1

HT-144 (Melanoma) = test: as above
Summary of the method: as §1

[16] = system: RPMI-8402 (T-Lymphoblastic Leukemia); test: as above
Summary of the method: as §1

[17] = system: SNU-1 (Gastric Carcinoma); test: as above
Summary of the method: as §1
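For Bliss excess, mean over the matrix in this document: after 72 h of two-drug dosing.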

SMILES | Bliss excess [1] | Bliss excess [2] | Bliss excess [3] | Bliss excess [4] | Bliss excess [5] | Bliss excess [6] | Bliss excess (SK-N-DZ (Neuroblastoma)) | Bliss excess [7] | Bliss excess [8] | Bliss excess (A375 (Melanoma) [9]) | Bliss excess (C32 (Melanoma) [10]) | Bliss excess [11] | combination Emax [12] | combination Emax [13] | combination Emax (A375 (Melanoma) [14]) | combination Emax (MG-63 (Osteosarcoma)) | combination Emax (C32 (Melanoma) [15]) | combination Emax (HT-144 (Melanoma)) | combination Emax [16] | combination Emax [17]
COc1cccc(OCCCN)c1-c1cc(Nc2cnc(C#N)cn2)n[nH]1 [Prexasertib] + CN(C)CCCOc1ccc(-c2ccc3ncc4c(c3c2)n(C2CCOCC2)c(=O)n4C)cn1 [AZD0156] (first compound max 1 µM, 7x7, partner max 1 µM) | 0.0385 | -0.0283 | -0.0057 | -0.0086 | -0.0504 | -0.0373 | 0.0108 | 0.0366 | 0.0357 | 0.0098 | 0.009 | 0.0102 | 0.886 | 0.462 | 0.851 | 0.906 | 0.774 | 0.744 | 1 | 0.842
Cn1cnc2c(F)c(Nc3ccc(Br)cc3Cl)c(C(=O)NOCCO)cc21 [Selumetinib] + CCN(CCO)CCCOc1ccc2c(Nc3cc(CC(=O)Nc4cccc(F)c4)[nH]n3)ncnc2c1 [AZD2811] (first compound max 10 µM, 7x7, partner max 1 µM) | -0.0112 | -0.021 | 0.0349 | -0.0253 | 0.0927 | -0.0294 | -0.0764 | -0.0288 | -0.0104 | -0.0274 | 0.0124 | -0.0981 | 0.453 | 0.676 | 0.718 | 0.32 | 0.999 | 0.786 | 0.754 | 0.53
C=CCn1c(=O)c2cnc(Nc3ccc(N4CCN(C)CC4)cc3)nc2n1-c1cccc(C(C)(C)O)n1 [AZD1775] + O=C(c1cc(Cc2n[nH]c(=O)c3ccccc23)ccc1F)N1CCN(C(=O)C2CC2)CC1 [Olaparib] (first compound max 1 µM, partner max 10 µM) | 0.0211 | -0.0797 | -0.0326 | -0.0435 | -0.0374 | -0.039 | -0.0122 | -0.0055 | -0.0293 | -0.0161 | -0.0271 | -0.0189 | 0.871 | 0.752 | 0.476 | 0.548 | 0.438 | 0.606 | 1 | 0.569
Cc1c2c(nn1C)CSCc1cc(n(C)n1)CSc1cc(c3ccccc3c1)OCCCc1c(C(=O)O)n(C)c3c-2c(Cl)ccc13 [AZD5991] + C[C@@H]1COCCN1C2=NC(=NC(=C2)C3(CC3)[S@](=N)(=O)C)C4=C5C=CNC5=NC=C4 [AZD6738] (first compound max 1 µM, 7x7, partner max 10 µM) | 0.0488 | 0.0449 | -0.0396 | 0.0509 | 0.0061 | -0.0078 | -0.0078 | 0.08 | 0.0235 | 0.0291 | 0.0531 | 0.0085 | 0.891 | 0.466 | 0.893 | 0.491 | 0.756 | 0.969 | 0.999 | 0.794
Cc1c2c(nn1C)CSCc1cc(n(C)n1)CSc1cc(c3ccccc3c1)OCCCc1c(C(=O)O)n(C)c3c-2c(Cl)ccc13 [AZD5991] + C=CCn1c(=O)c2cnc(Nc3ccc(N4CCN(C)CC4)cc3)nc2n1-c1cccc(C(C)(C)O)n1 [AZD1775] (first compound max 1 µM, partner max 1 µM) | 0.0568 | 0.0847 | -0.0314 | 0.0501 | 0.0066 | 0.0092 | 0.0464 | -0.0335 | 0.0251 | 0.0237 | 0.0452 | -0.0027 | 0.82 | 0.75 | 0.818 | 0.395 | 0.568 | 0.969 | 1 | 0.6
